The values that follow come from patent publication US10513529B2, “1,2,4-triazolo-[3,4-b]-1,3,4-thiadiazole derivatives” (GALENICA S.A., priority 2016, dated 2019).

Molecules are shown by their SMILES.

Series [1] concerns MCF-7 human breast cancer cell line. The series can be described thus: MTT cytostatic-cytotoxic activity, MCF-7. The class given is cell-based. The following applies: MCF-7, 48 h treatment.
The test system of series [2] is OVCAR-3 human ovarian cancer cell line. The series can be described thus: MTT cytostatic-cytotoxic activity, OVCAR-3. The class given is cell-based. The following applies: OVCAR-3, 48 h treatment. As for the experimental part: (§1) SKOV-3 (SKOV-3) (ATCC HTB 77) and OVCAR-3 (ATCC® HTB-161™)
(§2) Human ovarian adenocarcinoma cells, which are grown easily in monolayer culture with epithelial-like morphology. SKOV-3 are resistant to tumor necrosis factor (TNF) and to other cytotoxic drugs such as cisplatin, and adriamycin, while OVCAR-3 are resistant to adriamycin, cisplatin and melphalan. These cell lines express androgens, estrogens and progesterone receptors. When SKOV-3 or OVCAR-3 cells are subcutaneously implanted in nude mice, SCID mice, a moderately differentiated tumor develops, and the resulting model resembles primary ovarian adenocarcinoma in humans.
(§3) All cancer cell lines are stored in a liquid nitrogen tank in 2.5 ml cryovials (Corning-Costar, Cambridge, Mass.). DMSO (dimethylsulfoxide) act as a cryoprotectant and is added to prevent the formation of ice crystals which may lyse the cells. The Cells were grown as monolayer cultures in T-75 flasks (Corning-Costar, Cambridge, Mass.) and maintained at 37° C. in 5% CO2 incubator & 100% relative humidity. The cultures medium used are McCoy's 5a Medium, supplemented with 10% fetal bovine serum (FBS, Gibco) and 1% antibiotics (100 IU/ml penicillin/100 µg/ml streptomycin), sterilized by filtration (Corning-Costar filter, diameter 0.2 μm, RPMI-1640 and 50% RPMI-1640 (Catalog No 30-2001) plus 50% Mammary Epithelial Growth Medium (MEGM), supplemented with 10% fetal bovine serum (FBS, Gibco) and 1% antibiotics (100 IU/ml penicillin/100 μg/ml streptomycin). The passage is performed every 3-4 to days as follows: Cells are washed with sterile PBS (Phosphate buffered saline): 8 g/l NaCl, 0,2 g/l KCl, 1,15 g/l Na2HPO4καl 0,2 g/l KH2PO4. pH:7,4), add 2-3 ml 0.05% trypsin (Gibco 1:250) and 0.02% EDTA to cover the monolayer and incubate the flask at 3TC for 5-10 minutes. Trypsin-EDTA, is used mainly to detach the cells from the flask and prepare a single cell suspension. Finally, the number of cells can be determined by direct counting using a Neubauer chamber and cell viability is determined by staining the cells with trypan blue.
(§4) In the experimental study the in vitro effect of the compound type (I) was evaluated against ovarian cancer cell lines UWB1.289, UWB1.289+BRCA1 Kai SKOV-3.The cells were plated in 96-well plate (MTP) at a density of 1×10^4cells/m1 per well and maintained for 72 h at 3TC in a 5% CO2 incubator and grown as monolayers. The selection of the initial number of cells was made according to the rate of proliferation of the cell line, in order the cells throughout the experiment are in an exponential (log) growth phase. After 24 hours, cells were treated with 1-100 μmol/l of the tested compounds for 48 h. Experiments were carried out using triplicate wells. The viability of cultured cells was estimated by an (3-(4,5-imethylthiazol-2-yl)-2,5-diphenyltetrazolium bromide (MTT) metabolic assay as described previously (Finlay G J, Wilson W R and Baguley B C: Comparison of in vitro activity of cytotoxic drugs towards human carcinoma and leukaemia cell lines. Eur J Cancer Clin Oncol 22: 655-662, 1986; Alley M C, Scudiero D A, Monks A, Hursey M L, Czerwinski M J, Fine D L, et al. Feasibility of drug screening with panels of human tumor cell lines using a microculture tetrazolium assay. Cancer Res 1988; 48:589-601). MTT (Sigma, St Louis, Mo., USA) was dissolved in PBS in a concentration of 5 mg/ml, filter sterilized, and stored at 4° C. MTT (50 μl of stock solution) was added to each culture and incubated for 3 h at 3TC to allow metabolization. Formazan crystals were solubilized by DMSO (100 μl). Absorbance of the converted dye was measured at a wavelength of 540nm on ELISA reader (BioTek, Winooski, Vt., USA).
(§5) GI50: The mean concentration that causes 50% inhibition of cell growth (Growth Inhibition 50%). The calculation of the value is based on the formula: (Tt72x)−(Ct24)/(Ct72)-(Ct24)×100=50
(§6) TGI: The mean concentration that causes 100% inhibition of cell growth (Total Growth Inhibition). […]

Series [3] concerns A-549 human lung carcinoma cell line. The series is described as follows: MTT cytostatic-cytotoxic activity, A-549. The class given is cell-based. Conditions: A-549, 48 h treatment.
For series [4], the system named is PC-3 human hormone-resistant prostate cancer cell line. The series can be described thus: MTT cytostatic-cytotoxic activity, PC-3. The class given is cell-based. The following applies: PC-3, 48 h treatment.
Series [5] concerns T-47D human breast cancer cell line. The series can be described thus: MTT cytostatic-cytotoxic activity, T-47D. The class given is cell-based. The following applies: 48 h treatment.
The test system of series [6] is SKOV-3 human ovarian cancer cell line. The series is described as follows: MTT cytostatic-cytotoxic activity, SKOV-3. The class given is cell-based. Conditions: SKOV-3, 48 h treatment. The procedure:
as §1, §2, §3, §4, §5, §6

Series [7] concerns UWB1.289 human ovarian cancer cell line (mutant BRCA1). The series is described as follows: MTT cytostatic-cytotoxic activity, UWB1.289. The following applies: UWB1.289, 48 h treatment. The class given is cell-based. As for the experimental part: Also, UWB1.289 cells have mutated the p53 tumor suppressor gene and positive Wilms' tumor protein (WT) expression, have no functional BRCA1 gene and are positive for the expression of cytokeratin 7 (CK-7), calretinin and Wilms' tumor protein (WT). Finally they are sensitive to ionizing radiation.
as §3, §4, §5
(§7) TGI: The mean concentration that causes 100% inhibition of cell growth (Total Growth Inhibition). The value is calculated according to the formula: (Tt72x)−(Ct24)/(Ct72)−(Ct24)×100=0
(§8) IC50: The mean concentration that kills 50% of the cells (Inhibition Concentration 50%). The value is calculated according to the formula: (Tt72x)−(Ct24)/(Ct24)×100=[…]

Series [8] relates to UWB1.289 + BRCA1 human ovarian cancer cell line. The series is described as follows: MTT cytostatic-cytotoxic activity, UWB1.289+BRCA1. The class given is cell-based. Conditions: UWB1.289+BRCA1, 48 h treatment. The procedure: Human ovarian adenocarcinoma cells, derived from UBWB1,289, in which the presence of the BRCA1 gene has been restored. […] They are not susceptible to ionizing radiation and radioimmune chemical agents (e.g., alkylating agents). Also, UWB1.289 cells have mutated the p53 tumor suppressor gene, and are positive for the expression of cytokeratin 7 (CK-7), calretinin and Wilms' tumor protein (WT).
as §3, §4, §5, §7, §8

Series [9] has as its system MOLT-4 human acute T-leukemia cell line. The series is described as follows: MTT cytostatic-cytotoxic activity, MOLT-4. The class given is cell-based. Conditions: MOLT-4, 48 h treatment.
A short description of series [10]: in vivo. Conditions: both sexes, mouse, in vivo, ip; C57BI/6 mice, acute toxicity. As for the experimental part: The acute toxicity of the compounds was assessed from lethality by testing different concentrations, starting at 100mg/kg. […] For intraperitoneal (i.p.) treatment, stock solutions of the tested compounds were prepared immediately before use. They were suspended in corn oil in the desired concentration following initial dissolution in 10% dimethylsulfoxide (DMSO). C57BI/6 male and female were used for toxicity studies. Mice were kept under conditions of constant temperature and humidity in sterile cages with water and food.

Series [11] concerns all 9 human cancer cell lines. The series can be described thus: MTT cytostatic-cytotoxic activity, all 9 human cancer cell lines. The class given is cell-based. Conditions: for IC50: Homo sapiens, read-out: (cytotoxic); for GI50: in all 9 human cancer cell lines, read-out: IG50 (cytostatic).

One may read the TGI as the concentration at which net growth stops. With `COc1cc(Cc2nnc3sc(/C=C/c4cccc(F)c4)nn23)c(S(=O)(=O)N(C)C)cc1OC` [TS29, 3-[2-(N,N-dimethylsulfamoyl)-4,5dimethoxybenzyl]-6-(E)-3-fluorostyryl-1,2,4-triazolo[3,4-b]-1,3,4-thiazole], the GI50 in [1] was determined as 66 µM; in [2] it was 74 µM; in [3] it was 30 µM; in series [4] it was 85 µM; in series [5], 48 µM; in series [6] it was 45 µM. The GI50 in series [7] amounted to 10 µM; in [8] it was 10 µM; in series [9], 61 µM. The TGI in series [1] was above 100 µM; in series [2], above 100 µM; in series [3], 71 µM; in [4], above 100 µM; in series [5], 86 µM; in series [6], 84 µM. Besides, the TGI in [7] is 67 µM; in series [8], 64 µM; in series [9], above 100 µM. Moreover, the IC50 in series [1] (kills 50% of the cells), in series [2] (kills 50% of the cells), in series [3] (kills 50% of the cells), in [4] (kills 50% of the cells), in series [5] (kills 50% of the cells) and in [6] (kills 50% of the cells) was above 100 µM each time. For the same compound, the IC50 in [7] (kills 50% of the cells), in series [8] (kills 50% of the cells) and in series [9] (kills 50% of the cells) was above 100 µM in each case.
One may read the LD50 as the dose expected to kill half of the subjects tested. Low readings indicate greater toxicity, high ones lower toxicity. In turn, `COc1ccc(Cc2nn3c(Cc4cc(OC)c(OC)cc4S(=O)(=O)N(C)C)nnc3s2)cc1OC` [TS51, 3-[2-(N,N-dimethylsulfamoyl)-4,5-dimethoxybenzyl]-6-(3,4-dimethoxybenzyl)-1,2,4-triazolo[3,4-b]-1,3,4-thiazole] returned an LD50 in [10] above 500 mg/kg. In addition, in [11], the IC50 is above 100 µM and the GI50 is below 100 µM.
`COc1cc(Cc2nnc3sc(CCCc4ccccc4)nn23)c(S(=O)(=O)N(C)C)cc1OC` [TS52, 3-[2-(N,N-dimethylsulfamoyl)-4,5-dimethoxybenzyl]-6-(3-phenylpropyl)-1,2,4-triazolo[3,4-b]-1,3,4-thiazole] registered an LD50 in series [10] above 500 mg/kg. Moreover, in series [11], the IC50 is above 100 µM and the GI50 is below 100 µM.
In series [10], `COc1ccccc1CCc1nn2c(Cc3cc(OC)c(OC)cc3S(=O)(=O)N(C)C)nnc2s1` [TS54, 3-[2-(N,N-dimethylsulfamoyl)-4,5-dimethoxybenzyl]-6-[2-(2-methoxyphenyl)ethyl]-1,2,4-triazolo[3,4-b]-1,3,4-thiazole] registered an LD50 above 500 mg/kg. Also, in [11], the IC50 is above 100 µM and the GI50 was below 100 µM.
In series [10], `COc1ccc(CCc2nn3c(Cc4cc(OC)c(OC)cc4S(=O)(=O)N(C)C)nnc3s2)cc1` [TS55, 3-[2-(N,N-dimethylsulfamoyl)-4,5-dimethoxybenzyl]-6-[2-(4-methoxyphenyl)ethyl]-1,2,4-triazolo[3,4-b]-1,3,4-thiazole] had an LD50 above 500 mg/kg. Further, in series [11], the IC50 was above 100 µM and the GI50 was below 100 µM.
With `COc1cc(Cc2nnc3sc(COc4ccccc4)nn23)c(S(=O)(=O)N(C)C)cc1OC` [TS56, 3-[2-(N,N-dimethylsulfamoyl)-4,5-dimethoxybenzyl]-6-phenoxymethyl-1,2,4-triazolo[3,4-b]-1,3,4-thiazole], the LD50 in [10] is above 500 mg/kg. Moreover, in series [11], the IC50 is above 100 µM and the GI50 is below 100 µM.
As for `COc1cccc(Cc2nn3c(Cc4cc(OC)c(OC)cc4S(=O)(=O)N(C)C)nnc3s2)c1` [TS58, 3-[2-(N,N-dimethylsulfamoyl)-4,5-dimethoxybenzyl]-6-(3-methoxybenzyl)-1,2,4-triazolo[3,4-b]-1,3,4-thiazole], the LD50 in series [10] was above 500 mg/kg. Also, in [11], the IC50 is above 100 µM and the GI50 is below 100 µM.
Take `COc1cc(Cc2nnc3sc(-c4cc(OC)c(OC)c(OC)c4)nn23)c(S(=O)(=O)N(C)C)cc1OC` [TS59, 3-[2-(N,N-dimethylsulfamoyl)-4,5-dimethoxybenzyl]-6-(3,4,5-trimethoxyphenyl)-1,2,4-triazolo[3,4-b]-1,3,4-thiazole]: the LD50 in series [10] is above 500 mg/kg. For the same compound, in series [11], the IC50 is above 100 µM and the GI50 was below 100 µM.
The compound `COc1cc(Cc2nnc3sc(-c4ccc([N+](=O)[O-])cc4Cl)nn23)c(S(=O)(=O)N(C)C)cc1OC` [TS61, 3-[2-(N,N-dimethylsulfamoyl)-4,5-dimethoxybenzyl]-6-(2-chloro-4-nitrophenyl)-1,2,4-triazolo[3,4-b]-1,3,4-thiazole] yielded an LD50 in series [10] above 500 mg/kg. In series [11], the IC50 was above 100 µM and the GI50 is below 100 µM.
`COc1cc(Cc2nnc3sc(-c4cccc(N)c4)nn23)c(S(=O)(=O)N(C)C)cc1OC` [TS70, 3-[2-(N,N-dimethylsulfamoyl)-4,5-dimethoxybenzyl]-6-(3-aminophenyl)-1,2,4-triazolo[3,4-b]-1,3,4-thiazole] yielded an LD50 in series [10] above 500 mg/kg. In series [11], the IC50 was above 100 µM and the GI50 is below 100 µM.
